Molecules are shown by their SMILES.

Consider six compounds from ChEMBL document CHEMBL3132750, “4-Chlorocolchicine derivatives bearing a thiourea side chain at the C-7 position as potent anticancer agents” (Medchemcomm, 2014).

Tested on in one data set: not listed separately
The data set is described as follows: Metabolic stability in BALB/c mouse hepatic microsomes assessed per mg of microsomal protein at 1 umol/L preincubated for 5 mins by LC-MS/MS method. In kind it is ADME, Liver, Microsome. Particulars: 1 µM.
In the case of `COc1c(Cl)c2c(c(OC)c1OC)-c1ccc(OC)c(=O)cc1[C@@H](NC(=S)Nc1ccn(C)n1)CC2`, the Intrinsic clearance came out at 37 µL/min/mg.
In the case of `COc1c(Cl)c2c(c(OC)c1OC)-c1ccc(OC)c(=O)cc1[C@@H](NC(=O)N1CCCCC1)CC2`, the Intrinsic clearance turned out to be 43 µL/min/mg.
Turning to `CCN(CC)C(=O)N[C@H]1CCc2c(Cl)c(OC)c(OC)c(OC)c2-c2ccc(OC)c(=O)cc21`, the Intrinsic clearance came to 21 µL/min/mg.
As for `COc1c(Cl)c2c(c(OC)c1OC)-c1ccc(OC)c(=O)cc1[C@@H](NC(=S)Nc1cc[nH]n1)CC2`, the Intrinsic clearance was 188 µL/min/mg.
In the case of `COc1c(Cl)c2c(c(OC)c1OC)-c1ccc(OC)c(=O)cc1[C@@H](NC(C)=O)CC2`, the Intrinsic clearance is 28 µL/min/mg.
`COc1cc2c(c(OC)c1OC)-c1ccc(OC)c(=O)cc1[C@@H](NC(C)=O)CC2` [COLCHICINE] returned an Intrinsic clearance of 1 µL/min/mg.

The subject of a further data set is HCT-116. The data set is described as follows: Cytotoxicity against human HCT116 cells assessed as inhibition of cell proliferation after 96 hrs. In kind it is functional, cell-based. The following applies: HCT-116, 96 h.
For the compound `COc1c(Cl)c2c(c(OC)c1OC)-c1ccc(OC)c(=O)cc1[C@@H](NC(=S)Nc1ccn(C)n1)CC2`, the IC50 amounted to 1.3 nM.
Still for that read-out and setting: with `COc1c(Cl)c2c(c(OC)c1OC)-c1ccc(OC)c(=O)cc1[C@@H](NC(=O)N1CCCCC1)CC2` the figure was 42.4 nM; with `CCN(CC)C(=O)N[C@H]1CCc2c(Cl)c(OC)c(OC)c(OC)c2-c2ccc(OC)c(=O)cc21`, 44.3 nM; with `COc1c(Cl)c2c(c(OC)c1OC)-c1ccc(OC)c(=O)cc1[C@@H](NC(=S)Nc1cc[nH]n1)CC2`, 0.9 nM.
For the compound `COc1c(Cl)c2c(c(OC)c1OC)-c1ccc(OC)c(=O)cc1[C@@H](NC(C)=O)CC2`, the IC50 came to 8.1 nM.
`COc1cc2c(c(OC)c1OC)-c1ccc(OC)c(=O)cc1[C@@H](NC(C)=O)CC2` [COLCHICINE]: the half-inhibitory concentration (IC50) came to 10.6 nM.

The subject of the next data set is HT-29. The data set is described as follows: Cytotoxicity against human HT-29 cells assessed as inhibition of cell proliferation after 96 hrs. In kind it is functional, cell-based. Particulars: HT-29, 96 h.
Consider `COc1c(Cl)c2c(c(OC)c1OC)-c1ccc(OC)c(=O)cc1[C@@H](NC(=S)Nc1ccn(C)n1)CC2`, for which the IC50 came to 0.7 nM.
The same measure, in the same setting: with `COc1c(Cl)c2c(c(OC)c1OC)-c1ccc(OC)c(=O)cc1[C@@H](NC(=O)N1CCCCC1)CC2` the figure was 42.6 nM; with `CCN(CC)C(=O)N[C@H]1CCc2c(Cl)c(OC)c(OC)c(OC)c2-c2ccc(OC)c(=O)cc21`, 43.9 nM; with `COc1c(Cl)c2c(c(OC)c1OC)-c1ccc(OC)c(=O)cc1[C@@H](NC(=S)Nc1cc[nH]n1)CC2`, 0.3 nM.
Consider `COc1c(Cl)c2c(c(OC)c1OC)-c1ccc(OC)c(=O)cc1[C@@H](NC(C)=O)CC2`, for which the IC50 was 7.9 nM.
Turning to `COc1cc2c(c(OC)c1OC)-c1ccc(OC)c(=O)cc1[C@@H](NC(C)=O)CC2` [COLCHICINE], the IC50 worked out at 8.2 nM.

The test system of a further data set is A549. The data set is described as follows: Cytotoxicity against human A549 cells assessed as inhibition of cell proliferation after 96 hrs. In kind it is functional, cell-based. The following applies: A549, 96 h.
`COc1c(Cl)c2c(c(OC)c1OC)-c1ccc(OC)c(=O)cc1[C@@H](NC(=S)Nc1ccn(C)n1)CC2`: the IC50 came out at 5.8 nM.
Take `COc1c(Cl)c2c(c(OC)c1OC)-c1ccc(OC)c(=O)cc1[C@@H](NC(=O)N1CCCCC1)CC2`: the IC50 stood at 26.6 nM.
As for `CCN(CC)C(=O)N[C@H]1CCc2c(Cl)c(OC)c(OC)c(OC)c2-c2ccc(OC)c(=O)cc21`, the IC50 was 48.3 nM.
Still for that read-out and setting: with `COc1c(Cl)c2c(c(OC)c1OC)-c1ccc(OC)c(=O)cc1[C@@H](NC(=S)Nc1cc[nH]n1)CC2` the figure was 7.8 nM.
As to `COc1c(Cl)c2c(c(OC)c1OC)-c1ccc(OC)c(=O)cc1[C@@H](NC(C)=O)CC2`, the IC50 was 9.9 nM.

Broadly, the IC50 is the concentration needed to halve the response being measured.
